Toxic doses and inconclusive results are not listed.
System: P388 leukemia ip, CD2F1 mice, survival T/C
Experiment: NCI In Vivo Anticancer Drug Screen. Data for tumor model P388 Leukemia (intraperitoneal) in CD2F1 (CDF1) mice
Details: endpoint: median survival time, higher = longer survival
Outline: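 Mice carrying the transplanted tumor received test compound or vehicle. Survival was recorded in each group, and the value is the treated-group measurement divided by that of the vehicle-treated control group.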

[1] = dose: 12.5 mg/kg/injection, schedule: Q01DX009 (ip), vehicle: saline
[2] = dose: 25.0 mg/kg/injection, schedule: Q01DX009 (ip), vehicle: saline
[3] = dose: 60.0 mg/kg/injection, schedule: Q01DX005 (ip), vehicle: Klucel (hydroxypropylcellulose) (HPC)
[4] = dose: 120.0 mg/kg/injection, schedule: Q01DX005 (ip), vehicle: Klucel (hydroxypropylcellulose) (HPC)
[5] = dose: 50.0 mg/kg/injection, schedule: Q01DX005 (ip), vehicle: Klucel (hydroxypropylcellulose) (HPC)
[6] = dose: 100.0 mg/kg/injection, schedule: Q01DX005 (ip), vehicle: Klucel (hydroxypropylcellulose) (HPC)
[7] = dose: 200.0 mg/kg/injection, schedule: Q01DX005 (ip), vehicle: Klucel (hydroxypropylcellulose) (HPC)
[8] = dose: 240.0 mg/kg/injection, schedule: Q01DX005 (ip), vehicle: Klucel (hydroxypropylcellulose) (HPC)
[9] = dose: 60.0 mg/kg/injection, schedule: Q01DX005 (ip), vehicle: saline with Tween-80
[10] = dose: 120.0 mg/kg/injection, schedule: Q01DX005 (ip), vehicle: saline with Tween-80
[11] = dose: 240.0 mg/kg/injection, schedule: Q01DX005 (ip), vehicle: saline with Tween-80
[12] = dose: 50.0 mg/kg/injection, schedule: Q01DX005 (ip), vehicle: saline with Tween-80
[13] = dose: 100.0 mg/kg/injection, schedule: Q01DX005 (ip), vehicle: saline with Tween-80
[14] = dose: 50.0 mg/kg/injection, schedule: Q01DX009 (ip), vehicle: saline
[15] = dose: 100.0 mg/kg/injection, schedule: Q01DX009 (ip), vehicle: saline
[16] = dose: 100.0 mg/kg/injection, schedule: Q01DX009 (ip), vehicle: Klucel (hydroxypropylcellulose) (HPC)
[17] = dose: 50.0 mg/kg/injection, schedule: Q01DX009 (ip), vehicle: Klucel (hydroxypropylcellulose) (HPC)
[18] = dose: 200.0 mg/kg/injection, schedule: Q01DX009 (ip), vehicle: Klucel (hydroxypropylcellulose) (HPC)

## O=S(=O)(O)O.[O]=[V]
dose: 6.25 mg/kg/injection, schedule: Q01DX009 (ip), vehicle: saline
  T/C: 90 % of control
[1]
  T/C: 86 % of control
dose: 12.5 mg/kg/injection, schedule: Q04DX003 (ip), vehicle: saline
  T/C: 100 % of control
[2]
  T/C: 90 % of control
dose: 25.0 mg/kg/injection, schedule: Q04DX003 (ip), vehicle: saline
  T/C: 100 % of control

## Cc1ccc(-c2csc3nc(C)c(CN4CCOCC4)c(=O)n23)cc1
dose: 25.0 mg/kg/injection, schedule: Q04DX002 (ip), vehicle: Klucel (hydroxypropylcellulose) (HPC)
  T/C: 99 % of control
dose: 50.0 mg/kg/injection, schedule: Q04DX002 (ip), vehicle: Klucel (hydroxypropylcellulose) (HPC)
  T/C: 106 % of control
dose: 100.0 mg/kg/injection, schedule: Q04DX002 (ip), vehicle: Klucel (hydroxypropylcellulose) (HPC)
  T/C: 101 % of control
dose: 200.0 mg/kg/injection, schedule: Q04DX002 (ip), vehicle: Klucel (hydroxypropylcellulose) (HPC)
  T/C: 102 % of control

## CC(=O)NC[Si](C)(C)C
dose: 60.0 mg/kg/injection, schedule: Q01DX005 (ip), vehicle: saline
  T/C: 93 % of control
dose: 120.0 mg/kg/injection, schedule: Q01DX005 (ip), vehicle: saline
  T/C: 96 % of control
dose: 240.0 mg/kg/injection, schedule: Q01DX005 (ip), vehicle: saline
  T/C: 103 % of control

## Fc1ccc2nc3ccccc3c(SCCCCCCSc3c4ccccc4nc4ccc(F)cc34)c2c1
[3]
  T/C: 96 % of control
[4]
  T/C: 90 % of control

## COc1ccc2c(c1)c(COC(C)=O)c(COC(C)=O)c[n+]2[O-]
[5]
  T/C: 98 % of control
[6]
  T/C: 97 % of control
[7]
  T/C: 94 % of control

## CCC(=O)c1ccc(NC(=O)Nc2ncccn2)cc1
[3]
  T/C: 86 % of control
[4]
  T/C: 89 % of control
[8]
  T/C: 95 % of control

## Nc1nc(C2CCCCC2)cc(=O)[nH]1
[5]
  T/C: 87 % of control
[6]
  T/C: 97 % of control
[7]
  T/C: 97 % of control

## C/C(=N\NC(N)=S)c1cccc(/C(C)=N/NC(N)=S)n1
dose: 12.5 mg/kg/injection, schedule: Q04DX003 (ip), vehicle: saline with Tween-80
  T/C: 91 % of control
dose: 25.0 mg/kg/injection, schedule: Q04DX003 (ip), vehicle: saline with Tween-80
  T/C: 93 % of control
dose: 50.0 mg/kg/injection, schedule: Q04DX003 (ip), vehicle: saline with Tween-80
  T/C: 89 % of control

## CN1C(=O)CCC1c1nc2ccccc2[nH]1 (stereo not given)
[9]
  T/C: 102 % of control
[10]
  T/C: 101 % of control
[11]
  T/C: 96 % of control

## COC(=O)Nc1nc2ccc(C(=O)C3CC3)cc2[nH]1
dose: 12.5 mg/kg/injection, schedule: Q01DX005 (ip), vehicle: saline with Tween-80
  T/C: 111 % of control
dose: 25.0 mg/kg/injection, schedule: Q01DX005 (ip), vehicle: saline with Tween-80
  T/C: 108 % of control
[12]
  T/C: 117 % of control
[13]
  T/C: 180 % of control

## C/C(=N\NC(=S)N1CCCCCC1)c1cccc2cccnc12
[12]
  T/C: 107 % of control
[13]
  T/C: 103 % of control
dose: 200.0 mg/kg/injection, schedule: Q01DX005 (ip), vehicle: saline with Tween-80
  T/C: 116 % of control

## COc1ccc(CCN(C=O)c2ccc(OC)c(OC)c2)cc1OC
dose: 25.0 mg/kg/injection, schedule: Q01DX009 (ip), vehicle: other
  T/C: 115 % of control
dose: 50.0 mg/kg/injection, schedule: Q01DX009 (ip), vehicle: other
  T/C: 108 % of control
dose: 100.0 mg/kg/injection, schedule: Q01DX009 (ip), vehicle: other
  T/C: 102 % of control
dose: 200.0 mg/kg/injection, schedule: Q01DX009 (ip), vehicle: other
  T/C: 108 % of control
dose: 400.0 mg/kg/injection, schedule: Q01DX009 (ip), vehicle: other
  T/C: 96 % of control

## N#C/C(=N\O)C(N)=O
[2]
  T/C: 92 % of control
[14]
  T/C: 105 % of control
[15]
  T/C: 105 % of control
dose: 200.0 mg/kg/injection, schedule: Q01DX009 (ip), vehicle: saline
  T/C: 98 % of control

## C[N+]1(C)CCN(Cc2ccc3c(c2)CCc2ccccc2N3)CC1
dose: 3.75 mg/kg/injection, schedule: Q01DX005 (ip), vehicle: saline
  T/C: 104 % of control
dose: 7.5 mg/kg/injection, schedule: Q01DX005 (ip), vehicle: saline
  T/C: 96 % of control

## C=CC1(C)CCC2C(=CCC3C2(C)CC(O)C(O)C3(C)COC2OC(CO)C(O)C(O)C2O)C1 (stereo not given)
dose: 1.5 mg/kg/injection, schedule: Q01DX009 (ip), vehicle: Klucel (hydroxypropylcellulose) (HPC)
  T/C: 103 % of control
dose: 3.0 mg/kg/injection, schedule: Q01DX009 (ip), vehicle: Klucel (hydroxypropylcellulose) (HPC)
  T/C: 106 % of control
dose: 6.0 mg/kg/injection, schedule: Q01DX009 (ip), vehicle: Klucel (hydroxypropylcellulose) (HPC)
  T/C: 116 % of control
dose: 12.0 mg/kg/injection, schedule: Q01DX009 (ip), vehicle: Klucel (hydroxypropylcellulose) (HPC)
  T/C: 108 % of control
[1]
  T/C: 99 % of control
dose: 24.0 mg/kg/injection, schedule: Q01DX009 (ip), vehicle: Klucel (hydroxypropylcellulose) (HPC)
  T/C: 108 % of control
[2]
  T/C: 100 % of control
[14]
  T/C: 98 % of control
[15]
  T/C: 93 % of control

## Cc1c(C)[n+](=O)c2ccc(/C=N/N3CCOC3=O)cc2n1[O-]
dose: 6.25 mg/kg/injection, schedule: Q01DX009 (ip), vehicle: Klucel (hydroxypropylcellulose) (HPC)
  T/C: 106 % of control
dose: 12.5 mg/kg/injection, schedule: Q01DX009 (ip), vehicle: Klucel (hydroxypropylcellulose) (HPC)
  T/C: 97 % of control
dose: 25.0 mg/kg/injection, schedule: Q01DX009 (ip), vehicle: Klucel (hydroxypropylcellulose) (HPC)
  T/C: 102 % of control
[16]
  T/C: 90 % of control

## O=c1[nH]cnc2sc3c(c12)CCC3
[9]
  T/C: 100 % of control
[10]
  T/C: 88 % of control
[11]
  T/C: 94 % of control

## CCCCc1c(C#N)c(=O)n2c(N)c(C#N)cnc2c1SC
[9]
  T/C: 93 % of control
[10]
  T/C: 93 % of control
[11]
  T/C: 87 % of control

## ClC12CCC(c3ccccc3)(CC1)CC2
[17]
  T/C: 105 % of control
[16]
  T/C: 108 % of control
[18]
  T/C: 99 % of control

## O=C(NC(Cc1ccc(Br)cc1)C(=O)O)c1ccc(Cl)cc1 (stereo not given)
[5]
  T/C: 100 % of control
[6]
  T/C: 100 % of control
[7]
  T/C: 102 % of control

## CCCCCC(C(=O)OCC)/C(C)=N\NC(N)=S (stereo not given)
[3]
  T/C: 100 % of control
[4]
  T/C: 98 % of control
[8]
  T/C: 100 % of control

## Cc1onc(-c2c(Cl)cccc2Cl)c1C(=O)OCCOc1ccc(C(F)(F)F)cc1[N+](=O)[O-]
[9]
  T/C: 91 % of control
[10]
  T/C: 98 % of control
[11]
  T/C: 92 % of control

## O=Nc1c(O)c(Cl)cc2ccccc12
dose: 3.12 mg/kg/injection, schedule: Q01DX005 (ip), vehicle: saline with Tween-80
  T/C: 101 % of control
dose: 6.25 mg/kg/injection, schedule: Q01DX005 (ip), vehicle: saline with Tween-80
  T/C: 103 % of control

## CC(C)(C)c1cc(C(=O)O)c2soc(=O)c2c1
[17]
  T/C: 106 % of control
[16]
  T/C: 109 % of control
[18]
  T/C: 111 % of control

## CCC(C)C(=O)C(Br)C(Br)c1ccccc1 (stereo not given)
[17]
  T/C: 101 % of control
[16]
  T/C: 100 % of control
[18]
  T/C: 101 % of control

## CC(=O)On1nnc2ccccc2c1=O
dose: 6.25 mg/kg/injection, schedule: Q01DX009 (ip), vehicle: distilled water + Tween-80
  T/C: 97 % of control
dose: 12.5 mg/kg/injection, schedule: Q01DX009 (ip), vehicle: distilled water + Tween-80
  T/C: 100 % of control
dose: 25.0 mg/kg/injection, schedule: Q01DX009 (ip), vehicle: distilled water + Tween-80
  T/C: 97 % of control

## COC(=O)c1nnn(-c2ccc(Cl)cc2Cl)c1C(=O)c1ccc(Cl)c(Cl)c1
[9]
  T/C: 101 % of control
[10]
  T/C: 100 % of control
[11]
  T/C: 95 % of control

## Cc1ccccc1C(=O)c1cnc(C)n1Cc1ccccc1
[9]
  T/C: 96 % of control
[10]
  T/C: 98 % of control
[11]
  T/C: 98 % of control

## COc1ccc(C2CC(=O)NC2=O)cc1OC (stereo not given)
[9]
  T/C: 96 % of control
[10]
  T/C: 92 % of control
[11]
  T/C: 97 % of control

## O=c1c2nccnc2nc2n1CCCS2
[16]
  T/C: 99 % of control
[18]
  T/C: 100 % of control
